Experimental data as given in ChEMBL document CHEMBL5325396, “Discovery of Novel Acridane-Based Tubulin Polymerization Inhibitors with Anticancer and Potential Immunomodulatory Effects” (J Med Chem, 2023).

Key:
B16-F10 [1] = test: Antitumor activity against mouse B16-F10 cells allografted in C57 mouse assessed as tumor growth inhibition at 10 mg/kg, ip administered consecutively for 14 days in presence of NP-19; type: functional; settings: B16-F10, 336 h, time 14 day, read-out: TGI
B16-F10 [2] = test: Immunomodulatory activity in mouse B16-F10 cells allografted in C57 mouse assessed as decrease in PD-L1 level at 10 mg/kg, ip administered consecutively for 14 days relative to control; type: functional; design: scale not given: the % may be the effect or the level left; settings: time 14 day
B16-F10 [3] = test: Induction of cell cycle arrest in mouse B16-F10 cells assessed as accumulation at G2 phase at 10 nM incubated for 24 hrs by PI staining based flow cytometry (reference value: 23.04 %); type: functional
[4] = Toxicity in C57 mouse allografted with mouse B16-F10 cells assessed as body weight loss at 10 mg/kg, ip administered consecutively for 14 days in presence of NP-19; type: organism-based; settings: in vivo, 336 h, time 14 day
Tubulin = Tubulin (Sus scrofa, UniProt P02554+P02550); test: Inhibition of tubulin polymerization of pig brain microtubules by spectroscopic analysis; type: tissue-based
B16-F10 [5] = test: Induction of apoptosis in mouse B16-F10 cells assessed as late apoptotic cells at 10 nM incubated for 48 hrs by annexinV-FITC/PI staining based flow cytometry (reference value: 2.06 %); type: functional
B16-F10 [6] = test: Inhibition of cell migration in mouse B16-F10 cells assessed as wound area ratio at 25 nM incubated for 24 hrs by wound healing assay relative to control; type: functional
B16-F10 [7] = test: Induction of apoptosis in mouse B16-F10 cells assessed as early apoptotic cells at 10 nM incubated for 48 hrs by annexinV-FITC/PI staining based flow cytometry (reference value: 4.25 %); type: functional
B16-F10 [8] = test: Induction of cell cycle arrest in mouse B16-F10 cells assessed as accumulation at G1 phase at 25 nM incubated for 24 hrs by PI staining based flow cytometry (reference value: 52.77 %); type: functional
[9] = Toxicity in C57 mouse allografted with mouse B16-F10 cells assessed as pathological damage in heart at 10 mg/kg, ip administered consecutively for 14 days by H and E staining based analysis; type: organism-based; settings: in vivo, 336 h, time 14 day
B16-F10 [10] = test: Inhibition of cell migration in mouse B16-F10 cells assessed as wound area recovery upto 50 nM incubated for 24 hrs by wound healing assay relative to control; type: functional; design: scale not given: the % may be the effect or the level left; settings: up to 50 nM
B16-F10 [11] = test: Immunomodulatory activity in mouse B16-F10 cells allografted in C57 mouse assessed as increase in CD3-positive CD8-positive cells at 10 mg/kg, ip administered consecutively for 14 days in presence of NP-19 (reference value: 6.66 %); type: functional; settings: time 14 day
B16-F10 [12] = test: Induction of apoptosis in mouse B16-F10 cells assessed as necrotic cells at 50 nM incubated for 48 hrs by annexinV-FITC/PI staining based flow cytometry (reference value: 0.064 %); type: functional
B16-F10 [13] = test: Inhibition of cell migration in mouse B16-F10 cells assessed as wound area ratio at 10 nM incubated for 24 hrs by wound healing assay relative to control; type: functional
B16-F10 [14] = test: Induction of apoptosis in mouse B16-F10 cells assessed as early apoptotic cells at 50 nM incubated for 48 hrs by annexinV-FITC/PI staining based flow cytometry (reference value: 4.25 %); type: functional
B16-F10 [15] = test: Inhibition of colony formation in mouse B16-F10 cells at 50 uM incubated for 24 hrs and subsequent replacement of medium without compound measured after 10 to 14 days by crystal violet staining based assay relative to control; type: functional
B16-F10 [16] = test: Induction of apoptosis in mouse B16-F10 cells assessed as viable cells at 50 nM incubated for 48 hrs by annexinV-FITC/PI staining based flow cytometry (reference value: 93.6 %); type: functional; settings: read-out: Activity
B16-F10 [17] = test: Immunomodulatory activity in mouse B16-F10 cells allografted in C57 mouse assessed as increase in CD3-positive CD8-positive cells at 10 mg/kg, ip administered consecutively for 14 days (reference value: 6.66 %); type: functional; settings: time 14 day
B16-F10 [18] = test: Induction of apoptosis in mouse B16-F10 cells assessed as necrotic cells at 10 nM incubated for 48 hrs by annexinV-FITC/PI staining based flow cytometry (reference value: 0.064 %); type: functional
B16-F10 [19] = test: Induction of cell cycle arrest in mouse B16-F10 cells assessed as accumulation at S phase at 25 nM incubated for 24 hrs by PI staining based flow cytometry (reference value: 21.79 %); type: functional
B16-F10 [20] = test: Induction of cell cycle arrest in mouse B16-F10 cells assessed as accumulation at G1 phase at 50 nM incubated for 24 hrs by PI staining based flow cytometry (reference value: 52.77 %); type: functional
B16-F10 [21] = test: Induction of cell cycle arrest in mouse B16-F10 cells assessed as accumulation at G2 phase at 25 nM incubated for 24 hrs by PI staining based flow cytometry (reference value: 23.04 %); type: functional
[22] = Toxicity in C57 mouse allografted with mouse B16-F10 cells assessed as body weight loss at 10 mg/kg, ip administered consecutively for 14 days; type: organism-based; settings: in vivo, 336 h, time 14 day
[23] = Toxicity in C57 mouse allografted with mouse B16-F10 cells assessed as pathological damage in kidney at 10 mg/kg, ip administered consecutively for 14 days by H and E staining based analysis; type: organism-based; settings: in vivo, 336 h, time 14 day
B16-F10 [24] = test: Induction of cell cycle arrest in mouse B16-F10 cells assessed as accumulation at S phase at 50 nM incubated for 24 hrs by PI staining based flow cytometry (reference value: 21.79 %); type: functional
B16-F10 [25] = test: Antitumor activity against mouse B16-F10 cells allografted in C57 mouse assessed as tumor growth inhibition at 10 mg/kg, ip administered consecutively for 14 days; type: functional; settings: B16-F10, 336 h, time 14 day, read-out: TGI
B16-F10 [26] = test: Induction of apoptosis in mouse B16-F10 cells assessed as early apoptotic cells at 25 nM incubated for 48 hrs by annexinV-FITC/PI staining based flow cytometry (reference value: 4.25 %); type: functional
B16-F10 [27] = test: Immunomodulatory activity in mouse B16-F10 cells allografted in C57 mouse assessed as increase in CD3-positive CD4-positive cells at 10 mg/kg, ip administered consecutively for 14 days (reference value: 8.35 %); type: functional; settings: time 14 day
B16-F10 [28] = test: Inhibition of tubulin polymerization in mouse B16-F10 cells assessed as disruption of microtubule network incubated for 6 hrs by fluorescence microscopy; type: cell-based; settings: dose 10-50 nM
HeLa = test: cells; settings: Homo sapiens, 48 h
Description: Antiproliferative activity against human HeLa cells incubated for 48 hrs by MTT assay

B16-F10 [29] = test: Induction of cell cycle arrest in mouse B16-F10 cells assessed as accumulation at G1 phase at 10 nM incubated for 24 hrs by PI staining based flow cytometry (reference value: 52.77 %); type: functional
B16-F10 [30] = test: Antiproliferative activity against mouse B16-F10 cells incubated for 48 hrs by MTT assay; type: functional, cell-based; settings: B16-F10, 48 h
B16-F10 [31] = test: Inhibition of cell migration in mouse B16-F10 cells assessed as wound area ratio at 50 nM incubated for 24 hrs by wound healing assay relative to control; type: functional
HepG2 = test: Antiproliferative activity against human HepG2 cells incubated for 48 hrs by MTT assay; type: functional, cell-based; settings: HepG2, 48 h
B16-F10 [32] = test: Inhibition of tubulin polymerization in mouse B16-F10 cells assessed as loss of cellular structure incubated for 6 hrs by fluorescence microscopy; type: cell-based; settings: dose 10-50 nM

Compound: COc1ccc2c(c1F)Cc1ccccc1N2C(=O)c1cc(OC)c(OC)c(OC)c1
- inhibition in vivo at 10 mg/kg (B16-F10 [1]): 77.6%
- Activity (B16-F10 [2]): ~10%
- Activity (B16-F10 [3]): 24.07%
- Activity [4]: Non-Toxic
- IC50 (Tubulin): 1500 nM
- Activity (B16-F10 [5]): 3.17%
- Ratio (B16-F10 [6]): 26.05%
- Activity (B16-F10 [7]): 5.7%
- Activity (B16-F10 [8]): 16.55%
- Activity [9]: Non-Toxic
- Activity (B16-F10 [10]): 59.63%
- Activity (B16-F10 [11]): 19.5%
- Activity (B16-F10 [12]): 0.61%
- Ratio (B16-F10 [13]): 31.52%
- Activity (B16-F10 [14]): 36.8%
- inhibition at 50 µM (B16-F10 [15]): ~100%
- viability at 0.05 µM (B16-F10 [16]): 49.3%
- Activity (B16-F10 [17]): 8.17%
- Activity (B16-F10 [18]): 0.133%
- Activity (B16-F10 [19]): 38.12%
- Activity (B16-F10 [20]): 3.24%
- Activity (B16-F10 [21]): 43.79%
- Activity [22]: Non-Toxic
- Activity [23]: Non-Toxic
- Activity (B16-F10 [24]): 24.31%
- inhibition in vivo at 10 mg/kg (B16-F10 [25]): 65.1%
- Activity (B16-F10 [26]): 22.7%
- Activity (B16-F10 [27]): 10.1%
- inhibition (B16-F10 [28]): Dose-Dependent Effect
- IC50 (HeLa): 37 nM
- Activity (B16-F10 [29]): 50.88%
- IC50 (B16-F10 [30]): 20 nM
- Ratio (B16-F10 [31]): 7.2%
- IC50 (HepG2): 41 nM
- inhibition (B16-F10 [32]): Dose-Dependent Effect
